Legend:
SKOV3 cells = test: In vitro antiproliferative assay (CCK-8); type: cell-based; conditions: Homo sapiens, SK-OV-3; SKOV3, without BRCA mutations; CCK-8, 72 h; mean of three
Experimental: (§1) The proliferation of cancer cells was tested by CCK-8 assay. Briefly, cells were seeded in 96-well plates at approximately 5 × 10^3 cells per well. The cells were treated with test compounds after 24 h of incubation. CCK-8 reagent ([…]) was added to each well after 72 h of incubation, and the cells were then incubated at 37°C for 4 h. The light absorbance at 450 nm was measured using an Opsys microplate reader (Dynex Technologies, Chantilly, VA, United States). Results are illustrated as percentage viability normalized to DMSO-treated control cells.

U87 cells = test: In vitro antiproliferative assay (CCK-8); type: cell-based; conditions: Homo sapiens, U-87 MG; U87, without BRCA mutations; CCK-8, 72 h; mean of three
Experimental: as §1

K562 cells [1] = test: In vitro antiproliferative assay (CCK-8); type: cell-based; conditions: Homo sapiens; K562, without BRCA mutations; CCK-8, 72 h; mean of three
Experimental: as §1

Raji cells = test: In vitro antiproliferative assay (CCK-8); type: cell-based; conditions: Homo sapiens, without BRCA mutations, CCK-8, 72 h, mean of three
Experimental: as §1

MCF-7 cells = test: In vitro antiproliferative assay (CCK-8); type: cell-based; conditions: Homo sapiens, MCF7; MCF-7, without BRCA mutations; CCK-8, 72 h; mean of three
Experimental: as §1

HCC1937 cells = test: In vitro antiproliferative assay (CCK-8); type: cell-based; conditions: Homo sapiens; HCC1937, BRCA-mutated; CCK-8, 72 h; mean of three
Experimental: as §1

CH151 cells = test: In vitro antiproliferative assay (CCK-8); type: cell-based; conditions: CH151, without BRCA mutations; CCK-8, 72 h; mean of three
Experimental: as §1

Hela cells = test: In vitro antiproliferative assay (CCK-8); type: cell-based; conditions: Homo sapiens, without BRCA mutations, CCK-8, 72 h, mean of three
Experimental: as §1

MDA-MB-231 cells = test: In vitro antiproliferative assay (CCK-8); type: cell-based; conditions: Homo sapiens; MDA-MB-231, without BRCA mutations; CCK-8, 72 h; mean of three
Experimental: as §1

U251 cells = test: In vitro antiproliferative assay (CCK-8); type: cell-based; conditions: Homo sapiens, U-251; U251, without BRCA mutations; CCK-8, 72 h; mean of three
Experimental: as §1

MDA-MB-436 cells = test: In vitro antiproliferative assay (CCK-8); type: cell-based; conditions: Homo sapiens; MDA-MB-436, BRCA-mutated; CCK-8, 72 h; mean of three
Experimental: as §1

SW620 cells = test: In vitro antiproliferative assay (CCK-8); type: cell-based; conditions: Homo sapiens, SW-620; SW620, without BRCA mutations; CCK-8, 72 h; mean of three
Experimental: as §1

Capan-1 cells = test: In vitro antiproliferative assay (CCK-8); type: cell-based; conditions: Homo sapiens; Capan-1, BRCA-mutated; CCK-8, 72 h; mean of three
Experimental: as §1

A549 cells = test: In vitro antiproliferative assay (CCK-8); type: cell-based; conditions: Homo sapiens; A549, without BRCA mutations; CCK-8, 72 h; mean of three
Experimental: as §1

8226 cells = test: In vitro antiproliferative assay (CCK-8); type: cell-based; conditions: 8226, without BRCA mutations; CCK-8, 72 h; mean of three
Experimental: as §1

B16 cells = test: In vitro antiproliferative assay (CCK-8); type: cell-based; conditions: Mus musculus; B16, without BRCA mutations; CCK-8, 72 h; mean of three
Experimental: as §1

PARP1 = PARP1 (Homo sapiens, UniProt P09874); test: PARP1 enzyme inhibitory assay; type: biochemical; conditions: Table 2, B and C series; mean of three experiments
Chain of PARP1 (P09874 whole entry): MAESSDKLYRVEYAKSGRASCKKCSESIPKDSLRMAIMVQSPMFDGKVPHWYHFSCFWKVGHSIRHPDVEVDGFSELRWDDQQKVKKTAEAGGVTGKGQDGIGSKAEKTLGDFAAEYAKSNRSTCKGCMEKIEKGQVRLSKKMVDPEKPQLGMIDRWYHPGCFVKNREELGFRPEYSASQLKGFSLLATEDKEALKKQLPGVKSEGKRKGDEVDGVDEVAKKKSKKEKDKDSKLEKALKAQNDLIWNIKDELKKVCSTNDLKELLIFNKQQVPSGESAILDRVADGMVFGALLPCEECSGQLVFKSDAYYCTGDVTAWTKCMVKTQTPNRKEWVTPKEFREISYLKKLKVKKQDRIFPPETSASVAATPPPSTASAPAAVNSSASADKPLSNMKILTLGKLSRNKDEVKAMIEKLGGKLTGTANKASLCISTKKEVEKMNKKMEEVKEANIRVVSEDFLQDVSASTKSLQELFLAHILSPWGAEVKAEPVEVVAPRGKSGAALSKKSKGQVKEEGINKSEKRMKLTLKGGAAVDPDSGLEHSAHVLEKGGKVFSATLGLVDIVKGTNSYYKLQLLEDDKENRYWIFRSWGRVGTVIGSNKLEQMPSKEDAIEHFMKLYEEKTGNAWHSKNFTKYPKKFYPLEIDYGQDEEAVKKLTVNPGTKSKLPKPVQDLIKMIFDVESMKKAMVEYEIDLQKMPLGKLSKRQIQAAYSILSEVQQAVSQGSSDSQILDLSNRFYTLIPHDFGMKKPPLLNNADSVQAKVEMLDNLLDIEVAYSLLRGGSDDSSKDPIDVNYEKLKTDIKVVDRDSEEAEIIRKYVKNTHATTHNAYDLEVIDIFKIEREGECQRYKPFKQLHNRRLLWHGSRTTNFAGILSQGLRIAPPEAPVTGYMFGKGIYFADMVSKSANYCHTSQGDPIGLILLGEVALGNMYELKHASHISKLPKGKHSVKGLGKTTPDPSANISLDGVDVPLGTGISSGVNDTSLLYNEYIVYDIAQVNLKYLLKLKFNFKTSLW

K562 cells [2] = test: Cell apoptosis analysis (Annexin V-BV421/7-AAD, flow cytometry); type: cell-based; conditions: 24 h, control .90%
Experimental: K562 cells were treated with various concentrations of molecule C2, olaparib, or chlorambucil for 24 h. Cells were then harvested and washed twice with PBS and then resuspended with binding buffer (Becton Dickinson, United States). Cells were incubated with Annexin V-BV421 (Becton Dickinson, United States) and 7-AAD (Becton Dickinson, United States) for double labeling for 30 min, in the dark, at room temperature, followed by analysis using flow cytometry (FACSAria III, Becton Dickinson, United States). The data were analyzed using FlowJo v10 software.

K562 cells [3] = test: Cell cycle analysis (PI staining, flow cytometry); type: cell-based; conditions: for effect on cell cycle (in words): K562, 24 h, C2 1.25–5.0 µM, olaparib and chlorambucil 2.5–10 µM
Experimental: K562 and HCC1937 cells were incubated with different doses of molecule C2, olaparib, or chlorambucil for 24 h. After treatment, cells were collected and fixed with 70% pre-chilled ethanol in PBS and stored at −20°C overnight. The cells were then washed twice with PBS, incubated with 100 μg/ml RNase I (Solarbio, China) at 37°C for 1 h, and stained with propidium iodide (PI, 10 μg/ml, Solarbio, China) for 30 min, in the dark, at room temperature. Finally, the DNA content was measured using flow cytometry (FACSAria III, Becton Dickinson, United States). The data were analyzed and fitted using ModFit software.

[4] = parameters: method as in Jackson and Chester, 2015; conditions: ref Jackson and Chester, 2015; cited from earlier work
[5] = parameters: method as in Gala et al., 2020; conditions: in both aqueous and lipophilic solutions; ref Gala et al., 2020; cited from earlier work

Structure (SMILES) | IC50 (SKOV3 cells) [µM] | IC50 (U87 cells) [µM] | IC50 (K562 cells [1]) [µM] | IC50 (Raji cells) [µM] | IC50 (MCF-7 cells) [µM] | IC50 (HCC1937 cells) [µM] | IC50 (CH151 cells) [µM] | IC50 (Hela cells) [µM] | IC50 (MDA-MB-231 cells) [µM] | IC50 (U251 cells) [µM] | IC50 (MDA-MB-436 cells) [µM] | IC50 (SW620 cells) [µM] | IC50 (Capan-1 cells) [µM] | IC50 (A549 cells) [µM] | IC50 (8226 cells) [µM] | IC50 (B16 cells) [µM] | effect on cell cycle (in words) (K562 cells [3]) | percentage of apoptotic cells (apoptotic rate) (K562 cells [2]; K562, 5 μM) [%] | percentage of apoptotic cells (apoptotic rate) (K562 cells [2]; K562, 10 µM) [%] | further results
O=C(CCCc1ccc(N(CCCl)CCCl)cc1)N1CCN(C(=O)c2cc(Cc3n[nH]c(=O)c4ccccc34)ccc2F)CC1 [C2, 4-(3-(4-(4-(4-(Bis(2-chloroethyl)amino)phenyl)butanoyl)piperazine-1-carbonyl)-4-fluorobenzyl)phthalazin-1(2H)-one] | 4.04 ± 0.25 | 2.86 ± 0.01 | 1.12 ± 0.08 | 1.21 ± 0.02 | 2.28 ± 0.11 | 0.18 ± 0.01 | 2.77 ± 0.13 | 1.65 ± 0.11 | 6.33 ± 0.35 | 2.58 ± 0.14 | 0.013 ± 0.001 | 6.41 ± 0.46 | 0.086 ± 0.006 | 2.01 ± 0.13 | 3.62 ± 0.2 | 11.7 ± 1.01 | increased cell number at the G2/M phase in a dose-dependent manner | – | – | IC50 (PARP1): 0.0009 ± 8e-05 µM; percentage of apoptotic cells (apoptotic rate) (K562 cells [2]; K562, 1 μM): 10.96%; percentage of apoptotic cells (apoptotic rate) (K562 cells [2]; K562, 2 µM): 12.69%
O=C(O)CCCc1ccc(N(CCCl)CCCl)cc1 [Chlorambucil] | 3.98 ± 0.22 | > 100 | > 20 | 40.6 ± 3.6 | 19.5 ± 1.7 | > 1 | > 100 | > 100 | 95.3 ± 5.7 | 21.1 ± 1.8 | > 1 | 10 ± 1.01 | > 1 | 89.4 ± 3.4 | > 100 | > 100 | increased cell number at the G2/M phase in a dose-dependent manner | 2.49 | 2.96 | proportion of cells in the G2/M phase (K562 cells [3]; K562, 10 µM, 24 h): 61.60%
O=C(c1cc(Cc2n[nH]c(=O)c3ccccc23)ccc1F)N1CCN(C(=O)C2CC2)CC1 [Olaparib] | 12.8 ± 1.2 | 26 ± 1.2 | 10.4 ± 0.72 | 4.4 ± 0.33 | 30.6 ± 2.1 | 0.24 ± 0.01 | 24.9 ± 1.5 | 11.6 ± 1.01 | 53.8 ± 3.6 | > 100 | 0.047 ± 0.003 | 17.7 ± 1.2 | 0.129 ± 0.011 | 1.62 ± 0.11 | 66.8 ± 5.5 | > 100 | did not exhibit any effects | 1.53 | 1.91 | pharmacokinetics profiles and bioavailability [4]: relatively poor; solubility [5]: low solubility

— PMC9868654, “Discovery of a potent olaparib–chlorambucil hybrid inhibitor of PARP1 for the treatment of cancer” (Frontiers in Pharmacology, 2023)
